{
  "source": "patent US8648105B2",
  "about": "“Diarylthiohydantoin compounds” (The Regents of the University of California, priority 2006, dated 2014)",
  "key": {"[1]": {"assay": "Ranking of compounds in tiers for utility in treating prostate cancer", "source_text": "The placement of compounds into tiers was based on available data coupled with analytical judgment. Data considered included in vitro assays (AR response reporter system in LNCaP cell line, PSA level measurement, MTS mitochondrial assay) and in vivo experiments (tumor size measured directly or by emission induced by luciferase reporter gene, pharmacokinetic assays based on blood plasma levels). Not every compound was subjected to each assay. Not all data that was generated is shown. Judgment was applied in ranking compounds relative to each other for their utility in treating prostate cancer, in particular when ranking two compounds for which the same experiments were not performed."}, "LIAR cell line": {"tested_on": "LIAR cell line", "assay": "Luciferase activity of the LIAR cell line (FIG. 25)", "format": "cell-based", "conditions": "125 nmol to 1000 nmol", "excerpt": "FIG. 25 is a graph of luciferase activity of the LIAR cell line dosed with various compounds administered at concentrations ranging from 125 nmol to 1000 nmol.\nThe inventors have determined that what might appear to be a small change in the structure of hydantoin compounds may result in a large change in that compound's performance in treating prostate cancer."}, "AR [2]": {"biological_target": "T1, AR (Homo sapiens, UniProt P10275)", "T1 sequence (P10275 1-920)": "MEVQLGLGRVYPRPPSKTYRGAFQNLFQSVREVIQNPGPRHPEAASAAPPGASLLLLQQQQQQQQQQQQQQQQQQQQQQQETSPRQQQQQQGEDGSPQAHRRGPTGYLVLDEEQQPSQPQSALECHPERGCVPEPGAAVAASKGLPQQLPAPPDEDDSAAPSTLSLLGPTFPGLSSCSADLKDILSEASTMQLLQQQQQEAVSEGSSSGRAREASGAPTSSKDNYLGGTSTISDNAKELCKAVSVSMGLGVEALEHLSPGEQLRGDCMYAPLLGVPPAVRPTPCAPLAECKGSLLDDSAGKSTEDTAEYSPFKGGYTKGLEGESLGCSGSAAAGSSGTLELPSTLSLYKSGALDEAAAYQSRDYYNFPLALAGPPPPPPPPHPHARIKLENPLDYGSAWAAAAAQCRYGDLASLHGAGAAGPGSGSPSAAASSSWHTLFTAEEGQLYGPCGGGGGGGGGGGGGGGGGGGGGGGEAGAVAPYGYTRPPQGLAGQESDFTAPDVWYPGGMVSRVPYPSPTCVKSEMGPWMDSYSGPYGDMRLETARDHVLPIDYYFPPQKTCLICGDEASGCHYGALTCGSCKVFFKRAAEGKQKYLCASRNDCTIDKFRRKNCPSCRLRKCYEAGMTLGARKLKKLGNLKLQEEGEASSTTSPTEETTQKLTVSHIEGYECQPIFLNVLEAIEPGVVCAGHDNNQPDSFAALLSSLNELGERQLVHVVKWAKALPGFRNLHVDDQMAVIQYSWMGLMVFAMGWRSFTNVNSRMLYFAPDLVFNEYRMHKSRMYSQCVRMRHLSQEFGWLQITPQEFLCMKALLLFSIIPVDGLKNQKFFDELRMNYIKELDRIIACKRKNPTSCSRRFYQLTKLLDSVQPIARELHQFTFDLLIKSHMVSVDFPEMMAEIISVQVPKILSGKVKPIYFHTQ", "format": "cell-based", "set-up": "Fold induction, AR response reporter", "experimental": "(§1) The compounds were subjected to tests using an artificial AR response reporter system in a hormone refractory prostate cancer cell line. […] After two days of incubation, reporter activities were assayed."}, "AR [3]": {"biological_target": "T1, AR", "format": "cell-based", "set-up": "Fold induction, AR response reporter", "conditions": "for rank by relative PSA level, most active to least active: 500 nM; for decrease in PSA level of LNCaP-AR cells (comparison): 1000 nM", "experimental": "It is well established that PSA levels are indicators of AR activities in prostate cancer. […] The LNCaP-AR cells are a line of lymph node carcinoma of prostate cells transduced with a plasmid that makes express androgen receptors. […] After four days incubation, secreted PSA levels were assayed using PSA ELISA kits (American Qualex, San Clemente, Calif.)"}, "androgen receptor": {"biological_target": "T2, androgen receptor (Homo sapiens, UniProt P10275, T878A)", "T2 sequence (P10275 1-920 T878A)": "T1 sequence (P10275 1-920) with T878A", "conditions": "10 uM (R1881 1 nM), LNCaP"}, "[4]": {"assay": "Pharmacokinetics, drug concentration in mouse serum/plasma by HPLC", "conditions": "in vivo", "procedure": "Mice were divided into groups of three for each time points. Two mice were not treated with drug and two other mice were treated with vehicle solution. Each group was treated with 10 mg per kilogram of body weight.\nThe drug was dissolved in a mixture 1:5:14 of DMSO:PEG400: H20. (Vehicle solution) and was administered into mice through the tail vein. The animals are warmed under a heat lamp for approximately 20 minutes prior to treatment to dilate their tail vein. […] After drug administration, the animals were euthanized via CO2 inhalation at different timepoints: 5 nm, 30 nm, 2 h, 6 h, 16 h. Animals were immediately bleed after exposure to CO2 via cardiac puncture (1 ml BD syringe+27 G ⅝ needle).\nThe samples for HPLC analysis were prepared according to the following procedure:\nBlood cells were separated from serum by centrifugation.\nTo 400 μl of serum were added 80 μl of a 10 μM solution of an internal standard and 520 μl of acetonitrile. Precipitation occurred.\nThe mixture was vortexed for 3 minutes and then placed under ultrasound for 30 minutes.\nThe solid particles were filtered off or were separated by centrifugation.\nThe filtrate was dried under an argon flow to dryness."}, "AR [5]": {"tested_on": "AR", "format": "cell-based", "conditions": "FIG. 24", "experimental": "as §1"}, "LogP": {"assay": "LogP", "format": "physicochemical"}, "AR [6]": {"biological_target": "T1, AR", "format": "cell-based", "set-up": "Fold induction, AR response reporter", "conditions": "AR over expressed LNCaP, absence of R1881"}, "AR [7]": {"biological_target": "T1, AR", "format": "cell-based", "set-up": "Fold induction, AR response reporter", "conditions": "LN-AR, absence of R1881", "experimental": "Activities of AR response reporter were measured."}, "3T3": {"tested_on": "3T3", "assay": "Growth effect on 3T3 cells", "format": "cell-based", "conditions": "3T3 normal mouse fibroblast cell line"}, "DU-145 cells": {"tested_on": "DU-145 cells", "assay": "MTS growth assay in DU-145 cells", "format": "cell-based", "conditions": "DU-145, lacks AR expression"}, "[8]": {"biological_target": "T3, glucocorticoid receptor (GR) (Homo sapiens, UniProt P04150)", "T3 construct": "expressed in transfected cells; host or cells: LNCaP cells", "T3 sequence (P04150 1-777)": "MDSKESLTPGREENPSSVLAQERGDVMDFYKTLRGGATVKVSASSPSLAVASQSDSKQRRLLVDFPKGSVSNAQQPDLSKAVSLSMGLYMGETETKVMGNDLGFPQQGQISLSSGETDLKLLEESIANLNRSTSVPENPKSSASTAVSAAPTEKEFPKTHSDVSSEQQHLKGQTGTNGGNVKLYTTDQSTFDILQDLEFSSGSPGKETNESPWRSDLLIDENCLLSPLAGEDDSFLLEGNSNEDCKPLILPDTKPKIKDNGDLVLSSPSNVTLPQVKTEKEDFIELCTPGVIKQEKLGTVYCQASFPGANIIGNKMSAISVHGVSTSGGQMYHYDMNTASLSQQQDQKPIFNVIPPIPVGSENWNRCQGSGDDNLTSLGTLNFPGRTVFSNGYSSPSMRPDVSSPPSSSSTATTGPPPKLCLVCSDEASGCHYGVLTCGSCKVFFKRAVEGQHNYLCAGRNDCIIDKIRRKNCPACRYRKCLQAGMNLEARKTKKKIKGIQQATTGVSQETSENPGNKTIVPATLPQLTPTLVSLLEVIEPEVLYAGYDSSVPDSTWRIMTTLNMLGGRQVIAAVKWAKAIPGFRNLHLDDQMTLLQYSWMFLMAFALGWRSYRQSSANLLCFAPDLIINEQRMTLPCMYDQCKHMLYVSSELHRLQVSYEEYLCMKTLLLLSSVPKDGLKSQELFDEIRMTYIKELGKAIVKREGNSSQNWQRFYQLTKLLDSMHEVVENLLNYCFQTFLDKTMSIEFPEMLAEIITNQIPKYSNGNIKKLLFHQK", "assay": "GR response reporter in LNCaP cells over expressing glucocorticoid receptor", "format": "cell-based"}, "SkBr3": {"tested_on": "SkBr3", "assay": "Growth effect on SkBr3 cells", "format": "cell-based", "conditions": "SkBr3 breast cancer cells"}, "MCF7": {"tested_on": "MCF7", "assay": "Growth effect on MCF7 cells", "format": "cell-based", "conditions": "MCF7 breast cancer cells"}},
  "note": "Numbering of substitutions follows the chain as printed.",
  "data": [
    {"smiles": "Cc1ccc(N2C(=S)N(c3ccc(C#N)c(Cl)c3)C(=O)C2(C)C)cc1", "note": "[NC107]", "values": [
      {"measurement": "activity remarks in the ranking", "setting": "[1]", "value": "very poor activity"}
    ]},
    {"smiles": "Cc1ccc(N2C(=S)N(c3ccc(C#N)c(I)c3)C(=O)C2(C)C)cc1", "note": "[NC63]", "values": [
      {"measurement": "activity remarks in the ranking", "setting": "[1]", "value": "good activity"}
    ]},
    {"smiles": "CNC(=O)c1ccc(N2C(=S)N(c3ccc(C#N)c(C(F)(F)F)c3)C(=O)C23CCC3)cc1", "note": "[NC77]", "values": [
      {"measurement": "luciferase activity (comparison)", "setting": "LIAR cell line", "value": "less than the luciferase activity upon exposure to NC98"},
      {"measurement": "luciferase activity in LNCaP-AR cells", "setting": "AR [2]; 125 nM to 1000 nM, FIG. 3", "value": "acted to reduce luciferase activity"},
      {"measurement": "rank by relative luciferase activity, most active to least active", "setting": "AR [2]; 500 nM, FIG. 3", "value": "NC67>NC68>NC66>NC69>NC77=NC53>bicalutamide"}
    ]},
    {"smiles": "C[C@]1(O)CC[C@H]2[C@@H]3CCC4=CC(=O)CCC4=C3C=C[C@@]21C", "note": "[R1881, methyltrienolone, reference compound]", "values": [
      {"measurement": "induction of secreted PSA level", "setting": "AR [3]", "value": "strongly induced"},
      {"measurement": "androgen receptor nuclear translocation", "setting": "androgen receptor", "value": "nuclear translocation of the androgen receptor occurred"}
    ]},
    {"smiles": "CNC(=O)CCCc1ccc(N2C(=S)N(c3ccc(C#N)c(C(F)(F)F)c3)C(=O)C23CCC3)cc1", "note": "[NC48, 4-{4-[7-(4-Cyano-3-trifluoromethylphenyl)-8-oxo-6-thioxo-5,7-diaza-spiro[3.4]oct-5-yl]-phenyl}-N-methyl-butyramide]", "values": [
      {"measurement": "rank by relative PSA level, most active to least active", "setting": "AR [3]", "value": "NC50>NC48>NC7>NC43>NC44>NC49>NC50>NC45>bicalutamide"},
      {"measurement": "decrease in PSA level of LNCaP-AR cells (comparison)", "setting": "AR [3]", "value": "greater decrease in PSA level of LNCaP-AR cells than NC43, NC44, and NC50"},
      {"measurement": "PSA levels", "setting": "AR [3]; LN-AR cells, FIG. 23", "value": "PSA levels decreased"},
      {"measurement": "PSA level (comparison)", "setting": "AR [3]; LN/AR cell line, 125 nmol to 1000 nmol", "value": "less than the PSA level upon exposure to NC42 and NC46"},
      {"measurement": "pharmacokinetic behavior, residence time in blood", "setting": "[4]", "value": "metabolize fast"},
      {"measurement": "activity remarks in the ranking", "setting": "[1]", "value": "particularly advantageous"},
      {"measurement": "IC50 (comparison)", "setting": "AR [5]", "value": "much lower than the IC50 for bicalutamide"},
      {"measurement": "logP", "setting": "LogP", "value": 3.44}
    ]},
    {"smiles": "CN1C(=S)N(c2ccc(C#N)c(C(F)(F)F)c2)C(=O)C12CCC2", "note": "[NC24, 4-(5-methyl-8-oxo-6-thioxo-5,7-diazaspiro[3.4]oct-7-yl)-2-trifluoromethylenzonitrile, reference compound]", "values": [
      {"measurement": "agonistic activity on secreted PSA", "setting": "AR [6]", "value": "stimulated PSA expression"},
      {"measurement": "agonistic activity on AR response reporter", "setting": "AR [7]", "value": "strongly activated AR"},
      {"measurement": "inhibitory activity on AR response reporter", "setting": "AR [2]; hormone refractory LNCaP-AR", "value": "no inhibitory activities"}
    ]},
    {"smiles": "Cc1ccc(N2C(=S)N(c3ccc(C#N)c(C(F)(F)F)c3)C(=O)C23CCC3)cc1", "note": "[NC7, 4-(8-oxo-6-thioxo-5-(4-methylphenyl)-5,7-diazaspiro[3.4]oct-7-yl)-2-trifluoromethylbenzonitrile]", "values": [
      {"measurement": "growth effect", "setting": "3T3", "value": "no growth effect"},
      {"measurement": "rank by relative PSA level, most active to least active", "setting": "AR [3]", "value": "NC50>NC48>NC7>NC43>NC44>NC49>NC50>NC45>bicalutamide"},
      {"measurement": "decrease in PSA level of LNCaP-AR cells (comparison)", "setting": "AR [3]", "value": "greater decrease in PSA level of LNCaP-AR cells than NC43, NC44, and NC50"},
      {"measurement": "growth inhibitory effect", "setting": "DU-145 cells", "value": "no growth inhibitory effect"},
      {"measurement": "agonistic activity on secreted PSA", "setting": "AR [6]", "value": "no agonistic activities"},
      {"measurement": "agonistic activity on AR response reporter", "setting": "AR [7]", "value": "no agonistic activity"},
      {"measurement": "effect on GR response reporter", "setting": "[8]", "value": "no effect on GR"},
      {"measurement": "pharmacokinetic behavior, residence time in blood", "setting": "[4]", "value": "metabolize fast"},
      {"measurement": "growth effect", "setting": "SkBr3", "value": "no growth effect"},
      {"measurement": "IC50 (comparison)", "setting": "AR [5]", "value": "much lower than the IC50 for bicalutamide"},
      {"measurement": "growth effect", "setting": "MCF7", "value": "no growth effect"}
    ]},
    {"smiles": "CC1(C)C(=O)N(c2ccc(C#N)c(C(F)(F)F)c2)C(=S)N1CCCCO", "note": "[Example 29, 4-[3-(4-hydroxybutyl)-4,4-dimethyl-5-oxo-2-thioxoimidazolidin-1-yl]-2-trifluoromethylbenzonitrile, reference compound]", "values": [
      {"measurement": "agonistic activity on secreted PSA", "setting": "AR [6]", "value": "stimulated PSA expression"},
      {"measurement": "agonistic activity on AR response reporter", "setting": "AR [7]", "value": "strongly activated AR"},
      {"measurement": "IC50 (nM) Reporter", "setting": "AR [2]; LNCaP-AR, 100 pM R1881, two days, No = did not inhibit AR response reporter", "value": "No (*)"}
    ]},
    {"smiles": "Cc1ccc(N2C(=S)N(c3ccc(C#N)c(C(F)(F)F)c3)C(=O)C2(C)C)cc1", "note": "[NC2, 4-[3-(4-methylphenyl)-4,4-dimethyl-5-oxo-2-thioxoimidazolidin-1-yl]-2-trifluoromethyl-benzonitrile]", "values": [
      {"measurement": "growth effect", "setting": "3T3", "value": "no growth effect"},
      {"measurement": "growth inhibitory effect", "setting": "DU-145 cells", "value": "no growth inhibitory effect"},
      {"measurement": "growth effect", "setting": "SkBr3", "value": "no growth effect"},
      {"measurement": "growth effect", "setting": "MCF7", "value": "no growth effect"}
    ]}
  ]
}
